Measured values reported in patent US20190177440A1, “COMPOUND OR SALT THEREOF, ANTI-INFLAMMATORY AGENT, ANTI-CANCER AGENT AGAINST LUNG CANCER, METHOD OF PRODUCING COMPOUND OR SALTS THEREOF, METHOD OF TREATING INFLAMMATORY DISEASES AND METHOD OF TREATING LUNG CANCER” (TFK CO., LTD., priority 2016, published 2019).

Legend:
NF-κB [1] = test: Nuclear NF-κB level in RAW264.7 cells stimulated with LPSp (Example 5); format: cell-based, mouse; settings: final 1, 100 and 10,000 ng/mL, then LPSp 100 ng/mL, FIG. 5
Description: The culture medium was added to mouse macrophage cells (RAW264.7, ATCC) to prepare solutions at concentrations of 1.067×10^6 cells/mL. The solutions were seeded in 6 well plates in 3 mL portions, i.e., 3.2×10^6 cells/3 mL/well. After seeding, the test solution was incubated at 37° C. in a 5% CO2 for 2 hours, and 30 μL of the test solution was added to each well. After adding the test solution, the test solution was incubated at 37° C. in a 5% CO2 for 24 hours. The culture supernatant of each of the wells was then collected in a 15 mL tube. Then, 1 mL of the fresh culture solution was added to each of the wells, and after spreading over the entire well, the operation of collecting the culture solution into the 15 mL tube was repeated twice. Thereafter, the culture solution collected in the 15 mL tube was centrifuged at 1,000 rpm for 3 minutes, the supernatant was removed, and 3 mL of a new culture solution at 37° C. was added to suspend the culture solution, and centrifuged again under the same conditions. After centrifugation, the supernatant was removed, and 2 mL of the above-mentioned culture solution at 37° C. was added to the precipitate and suspended. Then, 2 mL of the suspension was added to each well to which 1 mL of a new culture medium had been added in advance. Thereafter, 30 μL of a new culture medium was added (hereinafter, this step is referred to as a “culture medium addition step”). After incubation at 37° C. in a 5% CO2 for 30 minutes, the culture supernatants of the wells were collected in 15-mL tubes, centrifuged at 1,000 rpm for 3 minutes, and the supernatants were removed by an aspirator. In addition, to the wells of the 6-well plate from which the culture supernatant was removed, 3 mL of cooled PBS (Phosphate buffered saline)/Phosphatase Inhibitors solution was added, the cells were removed by pipetting, and the cell suspension was added to the 15-mL tubes. The 15 mL tube was centrifuged at 1,000 rpm for 3 minutes, the supernatant was removed by an aspirator, and 0.5 mL of the cooled PB S/Phosphatase Inhibitors solution was added to the 15 mL tube and suspended to prepare a cell suspension. Nucleoproteins were extracted from the cell suspensions using Nuclear Extract kit (manufactured by Active Motif).
(§1) The amount of NF-κB in the nucleoprotein was confirmed by measuring the absorbance using the Trans AM NF KB p65 kit (manufactured by Active Motif).
In this example, an experiment was conducted in the same manner as in Example 4 except for the following two points, and the amount of NF-κB in the nucleoprotein was confirmed by measuring the absorbance. That is, in this example, three types of test solutions were used as the test solution, in which the concentration of the purified product was 100 ng/mL, 10,000 ng/mL, and 1,000,000 ng/mL. […]

human TLR4 = target: T1, human TLR4 (Homo sapiens, UniProt O00206+Q9Y6Y9); test: IL-8 production in Human Embryonic Kidney cells transfected with human TLR4 gene (Example 3); format: cell-based; settings: HEK cells with human TLR4 gene; final 0.1-10,000 ng/mL; 24 hours; ELISA; FIG. 3
T1 construct: host or cells: Human Embryonic Kidney cells
T1 sequence (O00206 24-839): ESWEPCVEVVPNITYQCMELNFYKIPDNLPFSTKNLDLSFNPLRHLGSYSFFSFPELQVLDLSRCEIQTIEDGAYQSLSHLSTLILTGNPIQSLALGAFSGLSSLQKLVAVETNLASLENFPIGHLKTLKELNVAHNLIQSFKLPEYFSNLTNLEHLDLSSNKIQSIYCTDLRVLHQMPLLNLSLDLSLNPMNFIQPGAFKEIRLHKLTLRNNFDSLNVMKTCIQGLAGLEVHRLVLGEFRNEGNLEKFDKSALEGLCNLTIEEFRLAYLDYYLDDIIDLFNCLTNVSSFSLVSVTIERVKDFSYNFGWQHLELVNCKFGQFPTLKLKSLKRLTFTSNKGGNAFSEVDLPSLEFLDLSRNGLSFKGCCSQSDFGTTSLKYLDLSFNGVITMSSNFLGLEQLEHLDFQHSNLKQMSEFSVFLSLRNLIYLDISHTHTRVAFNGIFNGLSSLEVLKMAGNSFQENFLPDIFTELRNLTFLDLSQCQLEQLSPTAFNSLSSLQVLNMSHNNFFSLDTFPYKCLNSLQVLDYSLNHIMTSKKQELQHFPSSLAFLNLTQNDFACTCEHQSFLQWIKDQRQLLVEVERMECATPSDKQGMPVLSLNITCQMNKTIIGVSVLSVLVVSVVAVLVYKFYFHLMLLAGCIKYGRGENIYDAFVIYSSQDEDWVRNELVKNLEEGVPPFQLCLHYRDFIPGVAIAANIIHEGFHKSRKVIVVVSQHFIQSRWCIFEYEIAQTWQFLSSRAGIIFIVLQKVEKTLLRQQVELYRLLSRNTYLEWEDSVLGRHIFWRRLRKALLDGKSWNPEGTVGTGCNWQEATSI
T1 sequence (Q9Y6Y9 17-160 limits assumed): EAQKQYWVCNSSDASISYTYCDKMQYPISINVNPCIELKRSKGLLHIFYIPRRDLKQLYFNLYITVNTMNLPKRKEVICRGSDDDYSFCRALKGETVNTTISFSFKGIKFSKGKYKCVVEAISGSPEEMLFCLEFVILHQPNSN
Description: The purified product obtained in Example 1 (the mixture of the compound represented by Formula (A1), the compound represented by Formula (B1), the compound represented by Formula (A2), and the compound represented by Formula (B2)) was dissolved in water for injection to a concentration of 2 mg/mL and stored at 4° C., and the solution was heated at 37° C. for 5 minutes and sonicated at 37° C. for 1 minute. 10 μL of the sonicated solution was added to 990 μL of the culture solution having the following composition to thoroughly mix, and a solution having a concentration of 20,000 ng/mL was prepared, which was serially diluted using the culture solution to obtain six test solutions having concentrations of 2,000 ng/mL, 200 ng/mL, 20 ng/mL, 2 ng/mL, and 0.2 ng/mL. Since the six test solutions are diluted twice when added to the cells, the final concentrations of the purified products are 10,000 ng/mL, 1,000 ng/mL, 100 ng/mL, 10 ng/mL, 1 ng/mL, and 0.1 ng/mL, respectively.
The culture medium was added to Human Embryonic Kidney cells (manufactured by InvivoGen) into which human TLR4 gene had been transfected, and solution were prepared in which the concentration of the cell was 4×10^5 cells/mL. The solution was seeded in 96-well flat-bottomed plates in 100 μL portions, i.e., 4×10^4 cells/100 μL/well. After seeding, the culture was cultured at 37° C. in a 5% CO2 for 24 hours, then the culture supernatant was removed, and 100 μL of the above-described culture medium was added to each well. Next, 100 μL of the test solution was added to each well. After adding the test solution, the culture was incubated at 37° C. in a 5% CO2 for 24 hours.
Culture supernatants from the wells were collected and the concentrations of Interleukin-8 (IL-8) were measured using Human IL-8 ELISA MAX (registered trademark) Standard (Biolegend).

NF-κB [2] = test: Nuclear NF-κB level in RAW264.7 mouse macrophage cells (Example 4); format: cell-based; settings: final 1 and 100 ng/mL, 24 hours pre-treatment, no LPSp, FIG. 4
Description: In the same manner as “(1) Preparation of test solution” in Example 3, a solution having a concentration of the purified product of 20,000 ng/mL was prepared, and the solution was serially diluted with a culture solution having the following composition, thereby obtaining two test solutions having 100 ng/mL and 10,000 ng/mL. Since the two test solutions are diluted 100-fold when added to the cells, the final concentrations of the purified product are 1 ng/mL and 100 ng/mL, respectively.
The culture medium was added to mouse macrophage cells (RAW264.7, ATCC) to prepare solutions at concentrations of 1.067×10^6 cells/mL. The solutions were seeded in 6 well plates in 3 mL portions, i.e., 3.2×10^6 cells/3 mL/well. After seeding, the test solution was incubated at 37° C. in a 5% CO2 for 2 hours, and 30 μL of the test solution was added to each well. After adding the test solution, the test solution was incubated at 37° C. in a 5% CO2 for 24 hours. The culture supernatant of each of the wells was then collected in a 15 mL tube. Then, 1 mL of the fresh culture solution was added to each of the wells, and after spreading over the entire well, the operation of collecting the culture solution into the 15 mL tube was repeated twice. Thereafter, the culture solution collected in the 15 mL tube was centrifuged at 1,000 rpm for 3 minutes, the supernatant was removed, and 3 mL of a new culture solution at 37° C. was added to suspend the culture solution, and centrifuged again under the same conditions. After centrifugation, the supernatant was removed, and 2 mL of the above-mentioned culture solution at 37° C. was added to the precipitate and suspended. Then, 2 mL of the suspension was added to each well to which 1 mL of a new culture medium had been added in advance. Thereafter, 30 μL of a new culture medium was added (hereinafter, this step is referred to as a “culture medium addition step”). After incubation at 37° C. in a 5% CO2 for 30 minutes, the culture supernatants of the wells were collected in 15-mL tubes, centrifuged at 1,000 rpm for 3 minutes, and the supernatants were removed by an aspirator. In addition, to the wells of the 6-well plate from which the culture supernatant was removed, 3 mL of cooled PBS (Phosphate buffered saline)/Phosphatase Inhibitors solution was added, the cells were removed by pipetting, and the cell suspension was added to the 15-mL tubes. The 15 mL tube was centrifuged at 1,000 rpm for 3 minutes, the supernatant was removed by an aspirator, and 0.5 mL of the cooled PB S/Phosphatase Inhibitors solution was added to the 15 mL tube and suspended to prepare a cell suspension. […]
as §1

CCCCCC/C=C/CCCCCC(=O)OC(CCCCCCCCCCC)CC(=O)NC1C(OCC2OC(OP(=O)(O)O)C(NC(=O)CC(=O)CCCCCCCCCCC)C(OC(=O)CC(O)CCCCCCC)C2O)OC(COC2(C(=O)O)CC(OC3(C(=O)O)CC(OC4OC(C(=O)O)C(OC5OC(CO)C(O)C(O)C5O)C(O)C4O)C(O)C(C(O)CO)O3)C(OC3OC(COP(=O)(O)O)C(OC4OC(CO)C(O)C(O)C4O)C(O)C3O)C(C(O)CO)O2)C(OP(=O)(O)O)C1OC(=O)CC(O)CCCCCCC (stereo not drawn) [Formula (A1)]
Equivalent results were obtained: amount of NF-κB in the nucleoprotein (absorbance) (NF-κB [1]) | concentration of IL-8 in culture supernatant (human TLR4) | amount of NF-κB in the nucleoprotein (absorbance) (NF-κB [2])

CCCCCC/C=C/CCCCCC(=O)OC(CCCCCCCCCCC)CC(=O)NC1C(OCC2OC(OP(=O)(O)O)C(NC(=O)CC(=O)CCCCCCCCCCC)C(OC(=O)CC(O)CCCCCCC)C2O)OC(COC2(C(=O)O)CC(OC3(C(=O)O)CC(OC4OC(C(=O)O)C(OC5OC(CO)C(O)C(O)C5O)C(O)C4O)C(O)C(C(O)CO)O3)C(OC3OC(CO)C(O)C(O)C3O)C(C(O)CO)O2)C(OP(=O)(O)O)C1OC(=O)CC(O)CCCCCCC (stereo not drawn) [Formula (A2)]
Equivalent results were obtained: amount of NF-κB in the nucleoprotein (absorbance) (NF-κB [1]) | concentration of IL-8 in culture supernatant (human TLR4) | amount of NF-κB in the nucleoprotein (absorbance) (NF-κB [2])

CCCCCC/C=C/CCCCCC(=O)OC(CCCCCCCCCCC)CC(=O)NC1C(OCC2OC(OP(=O)(O)O)C(NC(=O)CC(=O)CCCCCCCCCCC)C(OC(=O)CC(O)CCCCCCC)C2O)OC(COC2(C(=O)O)CC(OC3(C(=O)O)CC(O)C(OC4OC(C(=O)O)C(OC5OC(CO)C(O)C(O)C5O)C(O)C4O)C(C(O)CO)O3)C(OC3OC(COP(=O)(O)O)C(OC4OC(CO)C(O)C(O)C4O)C(O)C3O)C(C(O)CO)O2)C(OP(=O)(O)O)C1OC(=O)CC(O)CCCCCCC (stereo not drawn) [Formula (B1)]
Equivalent results were obtained: amount of NF-κB in the nucleoprotein (absorbance) (NF-κB [1]) | concentration of IL-8 in culture supernatant (human TLR4) | amount of NF-κB in the nucleoprotein (absorbance) (NF-κB [2])

CCCCCC/C=C/CCCCCC(=O)OC(CCCCCCCCCCC)CC(=O)NC1C(OCC2OC(OP(=O)(O)O)C(NC(=O)CC(=O)CCCCCCCCCCC)C(OC(=O)CC(O)CCCCCCC)C2O)OC(COC2(C(=O)O)CC(OC3(C(=O)O)CC(O)C(OC4OC(C(=O)O)C(OC5OC(CO)C(O)C(O)C5O)C(O)C4O)C(C(O)CO)O3)C(OC3OC(CO)C(O)C(O)C3O)C(C(O)CO)O2)C(OP(=O)(O)O)C1OC(=O)CC(O)CCCCCCC (stereo not drawn) [Formula (B2)]
Equivalent results were obtained: amount of NF-κB in the nucleoprotein (absorbance) (NF-κB [1]) | concentration of IL-8 in culture supernatant (human TLR4) | amount of NF-κB in the nucleoprotein (absorbance) (NF-κB [2])
